Experimental data taken from ChEMBL document CHEMBL3600312, “Novel Oxazolidinone-Based Peroxisome Proliferator Activated Receptor Agonists: Molecular Modeling, Synthesis, and Biological Evaluation” (J Med Chem, 2015).
The source made the active and inactive calls. The calls are words filed in the database; no cut-off is given here.

How the values were obtained:
[1] = target: T1, Peroxisome proliferator-activated receptor alpha (Homo sapiens, UniProt Q07869); test: Agonist activity at human PPARalpha transfected in human MCF7 cells after 16 hrs by luciferase reporter gene assay; type: cell-based
T1 sequence (Q07869 whole entry): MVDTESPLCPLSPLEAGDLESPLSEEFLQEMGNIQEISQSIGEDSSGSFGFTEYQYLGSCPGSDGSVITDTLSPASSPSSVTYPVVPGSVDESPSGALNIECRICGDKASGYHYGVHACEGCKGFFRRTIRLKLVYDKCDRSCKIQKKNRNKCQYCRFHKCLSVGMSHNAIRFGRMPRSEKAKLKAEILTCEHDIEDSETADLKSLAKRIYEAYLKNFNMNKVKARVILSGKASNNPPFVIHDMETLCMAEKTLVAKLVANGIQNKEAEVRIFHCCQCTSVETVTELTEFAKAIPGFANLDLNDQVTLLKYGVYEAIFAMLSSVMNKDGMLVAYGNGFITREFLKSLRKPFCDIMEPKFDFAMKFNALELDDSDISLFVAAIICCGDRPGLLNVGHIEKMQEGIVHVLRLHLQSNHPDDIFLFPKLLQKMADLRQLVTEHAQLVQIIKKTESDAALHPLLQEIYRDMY

[2] = target: T2, Peroxisome proliferator-activated receptor gamma (Homo sapiens, UniProt P37231); test: Agonist activity at human PPARgamma transfected in human MCF7 cells after 16 hrs by luciferase reporter gene assay; type: cell-based
T2 sequence (P37231 whole entry): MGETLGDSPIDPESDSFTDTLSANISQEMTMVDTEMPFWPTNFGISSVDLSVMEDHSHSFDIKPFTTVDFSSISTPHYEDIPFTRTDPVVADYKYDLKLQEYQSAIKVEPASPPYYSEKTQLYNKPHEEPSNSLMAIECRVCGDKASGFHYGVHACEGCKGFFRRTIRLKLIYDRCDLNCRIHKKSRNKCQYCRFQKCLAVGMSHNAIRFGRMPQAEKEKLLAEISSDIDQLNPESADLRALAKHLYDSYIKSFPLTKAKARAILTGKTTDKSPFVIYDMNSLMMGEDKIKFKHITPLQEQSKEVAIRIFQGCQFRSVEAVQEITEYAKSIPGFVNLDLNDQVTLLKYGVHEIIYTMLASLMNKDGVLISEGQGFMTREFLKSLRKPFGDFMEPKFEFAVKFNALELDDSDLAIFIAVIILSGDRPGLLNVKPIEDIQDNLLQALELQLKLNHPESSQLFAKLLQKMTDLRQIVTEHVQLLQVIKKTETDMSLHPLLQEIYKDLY

Rattus norvegicus [3] = test: Inhibition of food intake in 24 hrs food derived obese Wistar rat at 3 mg/kg, ip measured up to 120 mins relative to vehicle-treated control; type: functional
Rattus norvegicus [4] = test: Inhibition of food intake in 24 hrs food derived obese Wistar rat at 3 mg/kg, ip after 240 mins; type: functional, organism-based
Rattus norvegicus [5] = test: Inhibition of food intake in ip dosed 24 hrs food derived obese Wistar rat after 30 to 240 mins; type: functional, organism-based
Rattus norvegicus [6] = test: Inhibition of food intake in ip dosed 24 hrs food derived obese Wistar rat after 24 hrs; type: functional, organism-based

Compound | EC50 [1] [nM] | further results
O=C(Nc1ccc(C(=O)NC2CC2)cc1)c1cccc(CN2C(=O)OC[C@H]2Cc2ccccc2)c1 | 1980 | –
C[C@@H](Cc1cccc(NC(=O)c2ccc(NC(=O)Cc3ccc(C(C)(C)C)cc3)cc2)c1)C(=O)N1C(=O)OC[C@H]1Cc1ccccc1 | 966 | –
CCCCCC(=O)Nc1ccc(C(=O)Nc2cccc(C[C@H](C)C(=O)O)c2)cc1 | 981 | –
CC(C)(C)c1ccc(CNC(=O)c2ccc(NC(=O)c3cccc(CN4C(=O)OC[C@H]4Cc4ccccc4)c3)cc2)cc1 | – | inhibition in vivo at 3 mg/kg (Rattus norvegicus [3]): 50%; inhibition (Rattus norvegicus [4]): inactive; inhibition (Rattus norvegicus [5]): Dose-dependent effect
C[C@@H](Cc1cccc(NC(=O)c2ccc(NC(=O)Cc3ccc(C(C)(C)C)cc3)cc2)c1)C(=O)O | 866 | –
CCCCCCCCCCCCNC(=O)c1ccc(NC(=O)c2cccc(CN3C(=O)OC[C@H]3Cc3ccccc3)c2)cc1 | 6620 | EC50 [2]: > 100000 nM
CCCCCC(=O)Nc1ccc(C(=O)Nc2cccc(C[C@H](C)C(=O)N3C(=O)OC[C@H]3Cc3ccccc3)c2)cc1 | 1920 | –
O=C(NCC1CCCCC1)c1ccc(NC(=O)c2cccc(CN3C(=O)OC[C@H]3Cc3ccccc3)c2)cc1 | > 100000 | EC50 [2]: > 100000 nM
CCCCCNC(=O)c1ccc(NC(=O)c2cccc(CN3C(=O)OC[C@H]3Cc3ccccc3)c2)cc1 | – | inhibition (Rattus norvegicus [6]): Dose-dependent effect; inhibition (Rattus norvegicus [5]): Dose-dependent effect

The next lines start with results.

EC50 [1] [nM] | Compound | further results
> 100000 | CCCCCNC(=O)c1ccc(NC(=O)c2cccc(CN3C(=O)OC[C@@H]3Cc3ccccc3)c2)cc1 | –
756 | CC(C)(C)c1ccc(CNC(=O)c2ccc(NC(=O)c3cccc(CN4C(=O)OC[C@@H]4Cc4ccccc4)c3)cc2)cc1 | –
> 100000 | O=C(NCc1ccc(C(F)(F)F)cc1)c1ccc(NC(=O)c2cccc(CN3C(=O)OC[C@H]3Cc3ccccc3)c2)cc1 | EC50 [2]: > 100000 nM
> 100000 | O=C(NCc1ccccc1)c1ccc(NC(=O)c2cccc(CN3C(=O)OC[C@H]3Cc3ccccc3)c2)cc1 | EC50 [2]: > 100000 nM
> 100000 | O=C(NCc1ccc(C(F)(F)F)cc1)c1ccc(NC(=O)c2cccc(CN3C(=O)OC[C@@H]3Cc3ccccc3)c2)cc1 | –
